IC50 data for 17 compounds are collected here from ChEMBL document CHEMBL5385851, “Natural quinazolinones: From a treasure house to promising anticancer leads” (Eur J Med Chem, 2023).

Assay [1] has as its system MCF7. Briefly: Cytotoxicity against human MCF7 cells assessed as reduction in cell viability by MTS assay. It counts as functional, cell-based. (In general: Formazan colour is commonly taken as a measure of viable cells.)
In assay [2] the test system is NCI-H460. Briefly: Cytotoxicity against human NCI-H460 cells assessed as reduction in cell viability by MTS assay. It is filed as functional, cell-based.
Assay [3] relates to SF-268. As to the kind of experiment: Cytotoxicity against human SF-268 cells assessed as reduction in cell viability by MTS assay. It counts as functional, cell-based.
Assay [4] concerns AGS. Briefly: Cytotoxicity against human AGS cells assessed as reduction in cell viability incubated for 48 hrs by MTT assay. It is filed as functional, cell-based.
For assay [5], the system named is SNU1. As to the kind of experiment: Cytotoxicity against human SNU1 cells assessed as inhibition of cell growth measured after 72 hrs by cell titer glo assay. It counts as functional, cell-based. Particulars: SNU1, 72 h. On the technique in general: ATP-based viability assays read luminescence as a measure of living cells.
The subject of assay [6] is HCT-116. As to the kind of experiment: Cytotoxicity against human HCT-116 cells assessed as reduction in cell viability incubated for 24 hrs by MTT assay. It is filed as functional, cell-based. The note with it: HCT-116, 24 h.
Assay [7] concerns HCT-116. As to the kind of experiment: Antiproliferative activity against human HCT-116 cells assessed as reduction in cell growth incubated for 24 hrs by MTT assay. It is filed as functional, cell-based. Particulars: HCT-116, 24 h.
In assay [8] the test system is HepG2. As to the kind of experiment: Antiproliferative activity against human HepG2 cells assessed as reduction in cell viability incubated for 72 hrs by CCK-8 assay. It counts as functional, cell-based. Particulars: HepG2, 72 h.
Assay [9] is described as follows: Antiproliferative activity against human U373 cells assessed as inhibition of cell growth measured after 72 hrs by CTG assay. It is filed as functional, cell-based. Particulars: U373 MG.
Assay [10] relates to A549. As to the kind of experiment: Antiproliferative activity against human A549 cells assessed as cell growth inhibition. It counts as functional, cell-based.
In assay [11] the test system is MCF7. As to the kind of experiment: Antiproliferative activity against human MCF7 cells assessed as reduction in cell viability incubated for 48 hrs by MTT assay. It counts as functional, cell-based. Particulars: MCF7, 48 h.
For assay [12], the system named is SK-MEL-28. As to the kind of experiment: Cytotoxicity against human SK-MEL-28 cells assessed as inhibition of cell growth incubated for 72 hrs by MTT assay. Particulars: SK-MEL-28, 72 h. It counts as functional, cell-based.
Assay [13] has as its target Indoleamine 2,3-dioxygenase 1 (Homo sapiens, UniProt P14902). As to the kind of experiment: Inhibition of IDO1 in human HeLa cells. It is filed as cell-based.
Assay [14] relates to KB. Briefly: Cytotoxicity against human KB cells assessed as cell growth inhibition. It is filed as functional, cell-based.
Assay [15] concerns A549. As to the kind of experiment: Antiproliferative activity against human A549 cells assessed as cell growth inhibition incubated for 48 hrs by MTT assay. It counts as functional, cell-based. The note with it: A549, 48 h.
In assay [16] the test system is HCT-116. As to the kind of experiment: Antiproliferative activity against human HCT-116 cells assessed as inhibition of cell growth incubated for 48 hrs by MTT based colorimetric assay. It counts as functional. The note with it: HCT-116, 48 h.
Assay [17] concerns HepG2. Briefly: Antiproliferative activity against human HepG2 cells assessed as inhibition of cell growth incubated for 48 hrs by MTT based colorimetric assay. It counts as functional. Particulars: HepG2, 48 h.
Assay [18] deals with A-375. Briefly: Antiproliferative activity against human A-375 cells assessed as inhibition of cell growth incubated for 48 hrs by MTT based colorimetric method. It counts as functional. Particulars: A-375, 48 h.
Assay [19] has as its target Tryptophan 2,3-dioxygenase (Homo sapiens, UniProt P48775). Briefly: Inhibition of TDO (unknown origin) expressed in HEK293 cells. It is filed as cell-based.
Assay [20] relates to MCF7. Briefly: Cytotoxicity against human MCF7 cells assessed as reduction in cell viability measured after 48 hrs by MTT assay. It counts as functional, cell-based. The note with it: MCF7, 48 h.
The subject of assay [21] is K562. Briefly: Cytotoxicity against human K562 cells assessed as reduction in cell viability incubated for 24 hrs by MTT assay. It counts as functional, cell-based. Particulars: K562, 24 h.
Assay [22] deals with SW 1116. As to the kind of experiment: Antiproliferative activity against human […] cells assessed as reduction in cell viability incubated for 24 hrs by MTT assay. The note with it: SW 1116, 24 h. It counts as functional, cell-based.
The subject of assay [23] is K562. Briefly: Cytotoxicity against human K562 cells assessed as cell growth inhibition after 48 hrs by MTT assay. It counts as functional, cell-based. The note with it: K562, 48 h.
Assay [24] has as its system P388. Briefly: Cytotoxicity against mouse P388 cells assessed as inhibition of cell growth. It counts as functional, cell-based.
The subject of assay [25] is PC-3. Briefly: Cytotoxicity against human PC-3 cells assessed as inhibition of cell growth. It counts as functional, cell-based.

≈ marks a conversion by molar mass, not a printed value.

Indoleamine 2,3-dioxygenase 1, sequence (P14902 whole entry): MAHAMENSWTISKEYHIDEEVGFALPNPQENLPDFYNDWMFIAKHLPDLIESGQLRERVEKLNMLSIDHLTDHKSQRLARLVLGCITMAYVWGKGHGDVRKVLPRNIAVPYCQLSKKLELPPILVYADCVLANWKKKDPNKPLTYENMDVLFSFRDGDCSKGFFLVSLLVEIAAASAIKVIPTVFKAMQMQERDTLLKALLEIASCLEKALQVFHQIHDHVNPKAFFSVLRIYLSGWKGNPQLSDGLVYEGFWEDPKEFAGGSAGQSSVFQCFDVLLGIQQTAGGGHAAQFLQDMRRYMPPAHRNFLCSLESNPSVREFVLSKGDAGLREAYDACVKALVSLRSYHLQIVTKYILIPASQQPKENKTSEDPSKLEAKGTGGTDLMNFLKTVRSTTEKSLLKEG
Tryptophan 2,3-dioxygenase, sequence (P48775 whole entry): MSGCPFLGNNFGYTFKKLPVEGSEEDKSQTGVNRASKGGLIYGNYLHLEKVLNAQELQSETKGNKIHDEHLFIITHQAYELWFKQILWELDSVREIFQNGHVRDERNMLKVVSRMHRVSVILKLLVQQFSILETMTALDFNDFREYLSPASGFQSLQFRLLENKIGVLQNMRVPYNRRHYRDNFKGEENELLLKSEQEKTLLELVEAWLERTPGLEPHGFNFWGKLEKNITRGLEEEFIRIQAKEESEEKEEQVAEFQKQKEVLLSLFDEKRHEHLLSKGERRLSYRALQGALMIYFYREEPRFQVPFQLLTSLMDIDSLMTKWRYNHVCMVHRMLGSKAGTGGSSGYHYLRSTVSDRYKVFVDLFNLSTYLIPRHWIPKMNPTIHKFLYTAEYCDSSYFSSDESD

By IC50 is commonly meant the concentration needed to halve the response being measured. In the case of `COC(=O)CC1(O)c2ccccc2-n2c1nc1ccccc1c2=O` (stereo unspecified) [PHAITANTHRINS B], the IC50 in assay [1], in assay [2] and in [3] was greater than 50 µM throughout.
For the compound `O=C(C[C@H]1NCCC[C@@H]1O)Cn1cnc2ccccc2c1=O`, the IC50 in assay [4] came out at 0.17 µg/mL (≈ 0.564 µM); in [5], 0.05 µg/mL (≈ 0.166 µM).
`O=Cc1c(-c2nc3ccccc3c(=O)[nH]2)[nH]c2ccccc12`: in assay [6], the IC50 came out at 12.1 µM.
Take `O=C1OCC23Nc4ccccc4C(=O)N2c2ccccc2C13` (stereo unspecified): the IC50 in assay [1], in assay [2] and in assay [3] was greater than 50 µM throughout.
Consider `C[C@@H]1N[C@@H]2N(C1=O)c1ccccc1[C@@]21C[C@@H](n2cnc3ccccc3c2=O)C(=O)O1` [FUMITREMORGIN F], for which the IC50 in assay [7] is 202 µM; in [8] it was 235 µM; in assay [9], 90 µM; in assay [10], greater than 100 µM; in assay [11] it was greater than 100 µM; in assay [12] it was greater than 100 µM.
The compound `CCOC(=O)/C=C/c1ccc2nc3n(c(=O)c2c1)C1C=CC(F)=CC1C3=O` (stereo unspecified) had an IC50 in assay [13] of 0.02 µM.
In the case of `C=CC(C)(C)[C@@]12C[C@@]3(O)c4nc5ccccc5c(=O)n4[C@H](C)C(=O)N3[C@@H]1N(C(C)=O)c1ccccc12`, the IC50 in [14] was 61.4 µM.
Turning to `CC(=O)O[C@H](c1nc2ccccc2c(=O)n1[C@@H]1C[C@@]2(OC1=O)c1ccccc1N1C(=O)C(C)(C)N(O)[C@H]12)C(C)C`, the IC50 was found to be 0.54 µM in assay [15], 114 µM in assay [16], 58 µM in assay [17] and 108 µM in assay [18].
For `O=C1c2nc3ccc(CCN4CCOCC4)cc3c(=O)n2C2C=CC(F)=CC12` (stereo unspecified), the half-inhibitory concentration (IC50) amounted to 0.07 µM in [19] and 0.02 µM in assay [13].
With `CC(=O)O[C@H](c1nc2ccccc2c(=O)n1[C@@H]1C[C@]2(OC1=O)c1ccccc1N1C(=O)C(C)(C)N(O)[C@H]12)C(C)C` [TRYPTOQUIVALINE], in [20], the IC50 is 72 µM.
Turning to `C[C@H]1C(=O)N2c3ccccc3[C@@]3(O)C[C@@H](n4cnc5ccccc5c4=O)C(=O)N1[C@@H]23`, the values for the IC50 in assay [21] and in assay [22] were 0.035 µM and 0.034 µM, respectively.
Take `O=C1O[C@]2(C[C@H]1n1cnc3ccccc3c1=O)C(=O)Nc1ccccc12`: the 50% inhibitory concentration (IC50) is 235 µM in [8]; greater than 100 µM in assay [9]; greater than 100 µM in assay [10]; greater than 100 µM in assay [11]; greater than 100 µM in assay [12].
For `CN1CCN(CCc2ccc3nc4n(c(=O)c3c2)C2C=CC(F)=CC2C4=O)CC1` (stereo unspecified), the IC50 in assay [19] amounted to 0.09 µM; in assay [13] it was 0.02 µM.
On to `C[C@@]12NC(=O)[C@@H](CC13c1ccccc1N1C(=O)CN[C@@H]13)n1c2nc2ccccc2c1=O` (stereo partly specified), for which, in assay [23], the half-inhibitory concentration (IC50) was determined as 50 µM.
Take `CC1(C)C(=O)N2c3ccccc3[C@@]3(C[C@@H](n4cnc5ccccc5c4=O)C(=O)O3)[C@@H]2N1O`: the IC50 is 235 µM in [8]; greater than 100 µM in [9]; greater than 100 µM in assay [10]; greater than 100 µM in assay [11]; greater than 100 µM in assay [12].
On to `O=C(c1cnc2ccccc2c1)c1nc2ccccc2c(=O)[nH]1`, for which, in assay [24], the IC50 was 2.3 µg/mL (≈ 7.63 µM).
On to `COc1ccc2c(=O)n3c(nc2c1)-c1[nH]c2ccccc2c1CC3`, for which the IC50 in assay [25] was 19.4 µM.
